Results as given in ChEMBL document CHEMBL5030552, “Computational Design of Potent D-Peptide Inhibitors of SARS-CoV-2” (J Med Chem, 2021).

How the values were obtained:
SARS-CoV-2 [1] = test: Antiviral activity against SARS-CoV-2 B.1.1.7 variant assessed as neutralization viral infection in Vero cells by measuring cytopathic effect incubated for 4 days by crystal violet staining based assay; format: functional, organism-based; settings: Severe acute respiratory syndrome coronavirus 2, B.1.1.7, Vero, 96 h
SARS-CoV-2 [2] = test: Antiviral activity against SARS-CoV-2 B.1.351 variant assessed as neutralization viral infection in Vero cells by measuring cytopathic effect incubated for 4 days by crystal violet staining based assay; format: functional, organism-based; settings: Severe acute respiratory syndrome coronavirus 2, B.1.351, Vero, 96 h

Row | SMILES | IC50 (SARS-CoV-2 [1]) | IC50 (SARS-CoV-2 [2])
1 | CC[C@@H](C)[C@@H](NC(=O)CNC(=O)[C@@H](CC(C)C)NC(=O)CNC(=O)[C@@H](CCCCN)NC(=O)CNC(=O)[C@@H](CC(=O)O)NC(=O)[C@@H](Cc1ccccc1)NC(=O)[C@H](N)CCCNC(=N)N)C(=O)N[C@H](Cc1ccc(O)cc1)C(=O)N[C@H](CCC(N)=O)C(=O)N[C@H](Cc1ccc(O)cc1)C(=O)N[C@H](CCSC)C(=O)N[C@H](CCC(=O)O)C(=O)N[C@H](CCC(=O)O)C(=O)N[C@@H](C(=O)N[C@H](CCC(=O)O)C(=O)N[C@H](Cc1cnc[nH]1)C(=O)N[C@H](C)C(=O)N[C@H](C)C(=O)N[C@H](CO)C(=O)N[C@H](CCCNC(=N)N)C(=O)N[C@H](Cc1ccccc1)C(=O)N[C@H](C)C(=O)N[C@H](Cc1ccc(O)cc1)C(=O)N[C@H](Cc1ccccc1)C(=O)N[C@H](Cc1ccccc1)C(=O)N[C@H](Cc1ccc(O)cc1)C(=O)N[C@H](CCC(N)=O)C(=O)N[C@H](Cc1cnc[nH]1)C(=O)N[C@H](CC(C)C)C(=O)N[C@H](C)C(=O)O)[C@H](C)CC | 33.4 µM | 11.1 µM
2 | CC[C@@H](C)[C@@H](NC(=O)[C@@H](Cc1cnc[nH]1)NC(=O)[C@H](NC(=O)[C@@H](CCC(=O)O)NC(=O)[C@@H](CCC(=O)O)NC(=O)[C@@H](CCSC)NC(=O)[C@@H](CC(C)C)NC(=O)[C@@H](C)NC(=O)[C@@H](Cc1ccc(O)cc1)NC(=O)[C@@H](CC(C)C)NC(=O)[C@@H](C)NC(=O)[C@H](NC(=O)[C@@H](CCC(N)=O)NC(=O)[C@H](N)CC(C)C)[C@H](C)O)[C@H](C)CC)C(=O)N[C@H](C)C(=O)N[C@H](C)C(=O)N[C@H](CC(C)C)C(=O)N[C@H](CCC(=O)O)C(=O)N[C@H](CCCCN)C(=O)N[C@@H](C(=O)N[C@H](Cc1c[nH]c2ccccc12)C(=O)N[C@@H](C(=O)N[C@H](C)C(=O)N[C@H](CC(C)C)C(=O)N[C@H](CCCNC(=N)N)C(=O)N[C@H](Cc1cnc[nH]1)C(=O)N[C@H](CCC(N)=O)C(=O)N[C@H](Cc1ccc(O)cc1)C(=O)N[C@@H](C(=O)O)[C@H](C)O)[C@H](C)O)[C@H](C)O | 5.57 µM | 7.37 µM
